# In ChEMBL document CHEMBL1201862, “PubChem BioAssay data set” (2004):
#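 1) Cells in 96-well plates. 2) Compound, 48 h, 5 concentrations. 3) Linear interpolation between surrounding doses. 4) Unreached endpoint = highest concentration. GI50 = concentration required for 50% inhibition of growth.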 The source made the active and inactive calls. Cut-off read from the data, not from the text of the source: active = GI50 up to about 1.1 µM and inactive = higher.
# Tests used:
# Experiment in all cases: DTP human tumour cell line panel, 48 h
# [1] = test system: BT-549
# [2] = test system: CCRF-CEM
# [3] = test system: COLO 205
# [4] = test system: HOP-92
# [5] = test system: HT-29
# [6] = test system: Hs-578T
# [7] = test system: IGROV-1
# [8] = test system: M14
# [9] = test system: MDA-MB-231
# [10] = test system: MDA-MB-435
# [11] = test system: MOLT-4
# [12] = test system: NCI-H23
# [13] = test system: NCI-H522
# [14] = test system: NCI/ADR-RES
# [15] = test system: OVCAR-4
# [16] = test system: OVCAR-5
# [17] = test system: SR
# [18] = test system: T47D
# [19] = test system: TK-10
# [20] = test system: UO-31
SMILES,GI50 [1],GI50 [2],GI50 [3],GI50 [4],GI50 [5],GI50 [6],GI50 [7],GI50 [8],GI50 [9],GI50 [10],GI50 [11],GI50 [12],GI50 [13],GI50 [14],GI50 [15],GI50 [16],GI50 [17],GI50 [18],GI50 [19],GI50 [20]
Cc1cc2nc3c(C#N)c(C)c(CCCl)c(Cl)n3c2cc1C,2.49 µM (inactive),2.34 µM (inactive),3.69 µM (inactive),2.04 µM (inactive),2.46 µM (inactive),3.23 µM (inactive),2.09 µM (inactive),2.27 µM (inactive),2 µM (inactive),2.07 µM (inactive),2.08 µM (inactive),2.12 µM (inactive),12 µM (inactive),3.18 µM (inactive),6.76 µM (inactive),2.18 µM (inactive),2.29 µM (inactive),3.13 µM (inactive),2.18 µM (inactive),2.02 µM (inactive)
CC(C)Oc1cc2c(cc1O)CC[C@@H]1[C@@H]2CC[C@]2(C)[C@@H](O)CC[C@@H]12,5.71 µM (inactive),2.9 µM (inactive),20 µM (inactive),11.2 µM (inactive),9.84 µM (inactive),2.38 µM (inactive),6.14 µM (inactive),3.79 µM (inactive),8.36 µM (inactive),0.687 µM (active),4.74 µM (inactive),7.19 µM (inactive),1.58 µM (inactive),2.07 µM (inactive),9.64 µM (inactive),27.5 µM (inactive),0.575 µM (active),4.68 µM (inactive),11 µM (inactive),6.46 µM (inactive)
Cc1cc(S(N)(=O)=O)c(S/C(=N\Nc2ccc([N+](=O)[O-])cc2)c2ccc(Cl)cc2)cc1Cl,4.65 µM (inactive),3.56 µM (inactive),7.87 µM (inactive),2.26 µM (inactive),1.87 µM (inactive),4.88 µM (inactive),3.44 µM (inactive),4.09 µM (inactive),2.94 µM (inactive),2.27 µM (inactive),4.1 µM (inactive),2.25 µM (inactive),3.21 µM (inactive),2.64 µM (inactive),1.71 µM (inactive),2.64 µM (inactive),2.94 µM (inactive),3.07 µM (inactive),1.79 µM (inactive),4.42 µM (inactive)
CC(=O)Oc1ccc(C2SCc3nc4ccccc4n32)cc1 (stereo not given),6.4 µM (inactive),26.5 µM (inactive),19.3 µM (inactive),25.2 µM (inactive),23.3 µM (inactive),32.5 µM (inactive),30.7 µM (inactive),48.6 µM (inactive),27.4 µM (inactive),5.48 µM (inactive),16.1 µM (inactive),16.3 µM (inactive),22.8 µM (inactive),14.8 µM (inactive),24.4 µM (inactive),69.5 µM (inactive),15.6 µM (inactive),18.3 µM (inactive),35.2 µM (inactive),8.57 µM (inactive)
CCN(CC)S(=O)(=O)c1ccc2[nH]c(NC(=O)OC)nc2c1,> 100 µM (inactive),25.9 µM (inactive),96.8 µM (inactive),30.1 µM (inactive),40.9 µM (inactive),> 100 µM (inactive),32.4 µM (inactive),47.6 µM (inactive),> 100 µM (inactive),15.3 µM (inactive),20.4 µM (inactive),> 100 µM (inactive),> 100 µM (inactive),> 100 µM (inactive),35.6 µM (inactive),> 100 µM (inactive),28.9 µM (inactive),53.8 µM (inactive),6.47 µM (inactive),46.3 µM (inactive)
CCOC(=O)CCC(NC(=O)c1ccc(Nc2nc3ccc(C(F)(F)F)cc3nc2-c2ccccc2)cc1)C(=O)OCC (stereo not given),> 100 µM (inactive),25.8 µM (inactive),16.2 µM (inactive),23.9 µM (inactive),> 100 µM (inactive),24.4 µM (inactive),> 100 µM (inactive),19.7 µM (inactive),21.6 µM (inactive),83 µM (inactive),22.1 µM (inactive),97.1 µM (inactive),22.1 µM (inactive),> 100 µM (inactive),34.2 µM (inactive),> 92.9 µM (inactive),33.9 µM (inactive),22.1 µM (inactive),> 100 µM (inactive),31.5 µM (inactive)
O=C(O)CSC(CC(=O)c1ccc(Cl)cc1)c1ccc(Cl)cc1 (stereo not given),29.9 µM (inactive),8.71 µM (inactive),49.8 µM (inactive),25.8 µM (inactive),22.1 µM (inactive),34.6 µM (inactive),19.7 µM (inactive),42.1 µM (inactive),42 µM (inactive),22.1 µM (inactive),6.81 µM (inactive),42.7 µM (inactive),14.7 µM (inactive),38.7 µM (inactive),27.4 µM (inactive),> 100 µM (inactive),2.36 µM (inactive),29.3 µM (inactive),21.4 µM (inactive),34.6 µM (inactive)
O=C1C(NCCc2ccc(O)c(O)c2)=CC(=O)c2ncccc21,4.28 µM (inactive),3.22 µM (inactive),14.7 µM (inactive),20.1 µM (inactive),30.3 µM (inactive),5.82 µM (inactive),9.53 µM (inactive),14.7 µM (inactive),5.14 µM (inactive),1.7 µM (inactive),8.51 µM (inactive),7.36 µM (inactive),2.36 µM (inactive),14.4 µM (inactive),16.9 µM (inactive),19.7 µM (inactive),9.98 µM (inactive),22.7 µM (inactive),36.2 µM (inactive),11.4 µM (inactive)
